From patent publication US8263579B2, “Anti-inflammatory compounds” (Piramal Healthcare Limited, priority 2011, dated 2012)

Key:
TNF-α = experiment: High throughput screening in LPS stimulated THP-1 cells, TNF-α release by ELISA; type: cell-based
Experimental: (§1) The assay was designed on the basis of the reference, The Journal of Immunology, 1993, 151 (10), 5631-5638, the disclosure of which is incorporated by reference for the teaching of the assay.
(§2) THP-1 (ATCC, USA) cells were cultured in RPMI 1640 (Roswell Park Memorial Institute) culture medium (Gibco BRL, Pasley, UK) containing 100 U/ml penicillin, […] streptomycin (100× solution, Sigma Chemical Co. St Louis, Mo., USA) and 10% fetal bovine serum (Gibco BRL, Pasley, UK). The cells were differentiated into macrophages with phorbol myristate acetate (Sigma, USA) in 96 well culture plates. Following cell plating, various concentrations of the compound of formula I or the compound of formula II or vehicle (0.5% DMSO) were added to each well and the plate was incubated for 30 min at 37° C. Finally, per well, 20 μL of LPS (10 μg/mL stock solution) (Escherchia coli 0127:B8, Sigma Chemical Co., St. Louis, Mo.) was added for a final concentration of 1 μg/mL. Plates were incubated at 37° C. for 24 hours in an atmosphere of 5% CO2. Supernatants were harvested, and assayed for TNF-α and IL-6 by ELISA as described by the manufacturer (BD Biosciences). Percent inhibition of cytokine release compared to the control was calculated. The 50% inhibitory concentration (IC50) values were calculated by a nonlinear regression method.
(§3) Dexamethasone was used as standard.

IL-6 = experiment: High throughput screening in LPS stimulated THP-1 cells, IL-6 release by ELISA; type: cell-based
Experimental: as §1, §2, §3

[1] = Homo sapiens, LPS (1 μg/mL) stimulated THP-1 cells differentiated with PMA, 24 hours, ELISA
[2] = preparative HPLC fractions tested by method of Example 7
[3] = Homo sapiens, at 1 μg/ml, LPS stimulated THP-1 cells

Row | Compound | IC50 (TNF-α; [1]) [µg/mL] | TNF-α inhibition of HPLC fractions (qualitative) (TNF-α; [2]) | IC50 (IL-6; [1]) [µg/mL] | IL-6 inhibition of HPLC fractions (qualitative) (IL-6; [2]) | inhibition at 1 µg/mL (TNF-α; [3]) [%] | inhibition at 1 µg/mL (IL-6; [3]) [%]
1 | CCCCCCCCCCCCO/N=N/OC [Compound of formula II] | 1.5 | exhibited IL-6 and TNF-α inhibition | 1.2 | exhibited IL-6 and TNF-α inhibition | – | –
2 | C[C@@H]1C[C@H]2[C@@H]3CCC4=CC(=O)C=C[C@]4(C)[C@@]3(F)[C@@H](O)C[C@]2(C)[C@@]1(O)C(=O)CO [Dexamethasone, reference compound] | – | – | – | – | 73 | 84
